# According to PubChem BioAssay (NCI):
#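 Following 48 hours of exposure in 96-well plates, responses at five concentrations were used to interpolate endpoints linearly. TGI is the concentration that stops growth completely.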
# Tests used:
# Test in all cases: NCI tumour cell line growth inhibition, 48 h
# [1] = system: A498 renal
# [2] = system: A549 NSCLC
# [3] = system: ACHN renal
# [4] = system: CAKI-1 renal
# [5] = system: CCRF-CEM leukemia
# [6] = system: COLO 205 colon
# [7] = system: HCC-2998 colon
# [8] = system: HL-60(TB) leukemia
# [9] = system: HOP-92 NSCLC
# [10] = system: LOX IMVI melanoma
# [11] = system: M14 melanoma
# [12] = system: NCI-H226 lung
# [13] = system: NCI-H522 lung
# [14] = system: RPMI-8226 leukemia
# [15] = system: SF-295 CNS
# [16] = system: SF-539 CNS
# [17] = system: SNB-19 CNS
# [18] = system: UACC-62 melanoma
Structure (SMILES),TGI [1],TGI [2],TGI [3],TGI [4],TGI [5],TGI [6],TGI [7],TGI [8],TGI [9],TGI [10],TGI [11],TGI [12],TGI [13],TGI [14],TGI [15],TGI [16],TGI [17],TGI [18]
CN(C)/C=C(\C(=O)c1ccccc1)n1nc(-c2ccccc2)cc1-c1ccccc1,> 10 µM,> 10 µM,> 10 µM,> 10 µM,> 10 µM,> 10 µM,> 10 µM,> 10 µM,> 10 µM,> 10 µM,> 10 µM,> 10 µM,> 10 µM,> 10 µM,> 10 µM,> 10 µM,> 10 µM,> 10 µM
N#Cc1c(N)c2c(c(-c3ccccc3)c1-c1ccccc1)C(=O)N(NC(=O)c1ccccc1)C2=O,> 100 µM,> 100 µM,> 100 µM,> 100 µM,> 100 µM,> 100 µM,> 100 µM,> 100 µM,> 100 µM,> 100 µM,> 100 µM,> 100 µM,> 100 µM,> 100 µM,> 100 µM,> 100 µM,> 100 µM,> 100 µM
COc1ccc([C@H]2C=C(c3cc(F)c(Cl)cc3Cl)NC(=S)N2)cc1,79.2 µM,> 100 µM,> 100 µM,> 100 µM,> 100 µM,48.6 µM,70.5 µM,35.7 µM,> 100 µM,> 100 µM,> 100 µM,> 100 µM,> 100 µM,76 µM,> 100 µM,> 100 µM,> 100 µM,> 100 µM
O=C1Nc2cc([N+](=O)[O-])ccc2C(=O)N2CCC[C@@H]12,> 100 µM,> 100 µM,> 100 µM,> 100 µM,> 100 µM,> 100 µM,> 100 µM,> 100 µM,> 100 µM,> 100 µM,> 100 µM,> 100 µM,> 100 µM,> 100 µM,> 100 µM,> 100 µM,> 100 µM,> 100 µM
Cc1c2cccc-2ccc2c1[nH]c1ccc(Br)cc12,37.9 µM,17.5 µM,24.4 µM,24.9 µM,90.9 µM,4.33 µM,49.3 µM,> 100 µM,9.94 µM,15 µM,20.9 µM,5.6 µM,6.29 µM,10.2 µM,15.7 µM,19.1 µM,23.8 µM,27.1 µM
